Experimental data as given in ChEMBL document CHEMBL5346898, “Triazole-fused pyrimidines in target-based anticancer drug discovery” (Eur J Med Chem, 2023).
Values belong to the compound of their own block, whether it stands above or below them.

Columns and labels:
[1] = Anticancer activity against human A2780AD cells assessed as cell growth measured after 48 hrs by MTT assay; assay type: functional, cell-based
A2780 = assay: Anticancer activity against human A2780 cells assessed as cell growth measured after 48 hrs by MTT assay; assay type: functional, cell-based; conditions: A2780, 48 h
[2] = molecular target: T1, Ubiquitin carboxyl-terminal hydrolase 28 (Homo sapiens, UniProt Q96RU2); assay: Inhibition of USP28 (unknown origin)
T1 sequence (Q96RU2 whole entry): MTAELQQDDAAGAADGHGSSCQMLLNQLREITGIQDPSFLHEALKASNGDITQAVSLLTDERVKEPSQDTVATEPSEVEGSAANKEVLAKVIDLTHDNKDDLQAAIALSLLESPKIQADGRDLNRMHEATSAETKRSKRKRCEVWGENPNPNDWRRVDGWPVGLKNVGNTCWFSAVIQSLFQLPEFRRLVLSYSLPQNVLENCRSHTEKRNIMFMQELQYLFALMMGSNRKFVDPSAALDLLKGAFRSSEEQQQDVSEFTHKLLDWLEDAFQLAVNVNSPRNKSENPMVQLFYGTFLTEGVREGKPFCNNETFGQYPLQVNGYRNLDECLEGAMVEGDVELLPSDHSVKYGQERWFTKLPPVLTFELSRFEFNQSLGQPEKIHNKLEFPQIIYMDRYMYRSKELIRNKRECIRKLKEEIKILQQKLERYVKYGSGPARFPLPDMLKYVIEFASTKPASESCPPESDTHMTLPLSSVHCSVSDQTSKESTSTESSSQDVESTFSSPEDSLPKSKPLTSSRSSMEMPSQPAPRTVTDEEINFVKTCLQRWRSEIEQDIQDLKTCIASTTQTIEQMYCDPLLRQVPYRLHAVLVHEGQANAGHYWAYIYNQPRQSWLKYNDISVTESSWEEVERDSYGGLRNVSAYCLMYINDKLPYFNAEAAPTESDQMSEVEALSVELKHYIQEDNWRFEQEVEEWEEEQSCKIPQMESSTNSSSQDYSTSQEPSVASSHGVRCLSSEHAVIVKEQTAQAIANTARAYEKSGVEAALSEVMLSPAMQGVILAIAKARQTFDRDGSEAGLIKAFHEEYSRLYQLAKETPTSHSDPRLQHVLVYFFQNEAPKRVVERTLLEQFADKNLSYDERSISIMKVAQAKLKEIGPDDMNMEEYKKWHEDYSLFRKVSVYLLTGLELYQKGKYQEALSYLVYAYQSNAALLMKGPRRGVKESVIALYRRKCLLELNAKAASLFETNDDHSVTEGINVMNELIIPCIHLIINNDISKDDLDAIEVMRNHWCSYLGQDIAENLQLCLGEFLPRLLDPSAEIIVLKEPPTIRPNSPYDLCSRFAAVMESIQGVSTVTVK

[3] = molecular target: Ubiquitin carboxyl-terminal hydrolase 7 (Homo sapiens, UniProt Q93009); assay: Inhibition of USP7 (unknown origin)
[4] = molecular target: Lysine-specific histone demethylase 1A (Homo sapiens, UniProt O60341); assay: Inhibition of LSD1 (unknown origin)
eIF-2-alpha kinase GCN2 [5] = molecular target: T2, eIF-2-alpha kinase GCN2 (Homo sapiens, UniProt Q9P2K8); assay: Inhibition of human GCN2 (unknown origin)
Tubulin [6] = assay: Inhibition of tubulin polymerization (unknown origin); assay type: protein-complex assay, Homo sapiens
Tubulin [7] = assay: Inhibition of tubulin polymerization (unknown origin) by spectrophotometric analysis; assay type: protein-complex assay, Homo sapiens
Polycomb protein EED = Polycomb protein EED (Homo sapiens, UniProt O75530); assay: Inhibition of EED (unknown origin)
G-401 = assay: Anticancer activity against human G-401 cells assessed as cell growth inhibition; assay type: functional, cell-based
SW620/AD300 = assay: Antitumor activity against […] SW620/AD300 cells xenografted in BALB/c nude mouse assessed as relative tumor proliferation rate at 100 mg/kg/day, IG measured after 15 days relative to control; assay type: functional, Homo sapiens; conditions: time 15 day
Tubulin (Homo sapiens) = Tubulin (Homo sapiens) (UniProt P68371+Q9H4B7+P0DPH7+P68366+Q13509+Q71U36+P04350+Q3ZCM7+P07437+P68363+Q9BQE3+Q6PEY2+Q13885+Q9BVA1+Q9BUF5); assay: Inhibition of tubulin polymerization (unknown origin) at 10 uM by spectrophotometric analysis relative to control; assay type: protein-complex assay
eIF-2-alpha kinase GCN2 [8] = molecular target: T2, eIF-2-alpha kinase GCN2; assay: Inhibition of human recombinant GCN2 using eIF2alpha as substrate

T2 sequence (Q9P2K8 whole entry): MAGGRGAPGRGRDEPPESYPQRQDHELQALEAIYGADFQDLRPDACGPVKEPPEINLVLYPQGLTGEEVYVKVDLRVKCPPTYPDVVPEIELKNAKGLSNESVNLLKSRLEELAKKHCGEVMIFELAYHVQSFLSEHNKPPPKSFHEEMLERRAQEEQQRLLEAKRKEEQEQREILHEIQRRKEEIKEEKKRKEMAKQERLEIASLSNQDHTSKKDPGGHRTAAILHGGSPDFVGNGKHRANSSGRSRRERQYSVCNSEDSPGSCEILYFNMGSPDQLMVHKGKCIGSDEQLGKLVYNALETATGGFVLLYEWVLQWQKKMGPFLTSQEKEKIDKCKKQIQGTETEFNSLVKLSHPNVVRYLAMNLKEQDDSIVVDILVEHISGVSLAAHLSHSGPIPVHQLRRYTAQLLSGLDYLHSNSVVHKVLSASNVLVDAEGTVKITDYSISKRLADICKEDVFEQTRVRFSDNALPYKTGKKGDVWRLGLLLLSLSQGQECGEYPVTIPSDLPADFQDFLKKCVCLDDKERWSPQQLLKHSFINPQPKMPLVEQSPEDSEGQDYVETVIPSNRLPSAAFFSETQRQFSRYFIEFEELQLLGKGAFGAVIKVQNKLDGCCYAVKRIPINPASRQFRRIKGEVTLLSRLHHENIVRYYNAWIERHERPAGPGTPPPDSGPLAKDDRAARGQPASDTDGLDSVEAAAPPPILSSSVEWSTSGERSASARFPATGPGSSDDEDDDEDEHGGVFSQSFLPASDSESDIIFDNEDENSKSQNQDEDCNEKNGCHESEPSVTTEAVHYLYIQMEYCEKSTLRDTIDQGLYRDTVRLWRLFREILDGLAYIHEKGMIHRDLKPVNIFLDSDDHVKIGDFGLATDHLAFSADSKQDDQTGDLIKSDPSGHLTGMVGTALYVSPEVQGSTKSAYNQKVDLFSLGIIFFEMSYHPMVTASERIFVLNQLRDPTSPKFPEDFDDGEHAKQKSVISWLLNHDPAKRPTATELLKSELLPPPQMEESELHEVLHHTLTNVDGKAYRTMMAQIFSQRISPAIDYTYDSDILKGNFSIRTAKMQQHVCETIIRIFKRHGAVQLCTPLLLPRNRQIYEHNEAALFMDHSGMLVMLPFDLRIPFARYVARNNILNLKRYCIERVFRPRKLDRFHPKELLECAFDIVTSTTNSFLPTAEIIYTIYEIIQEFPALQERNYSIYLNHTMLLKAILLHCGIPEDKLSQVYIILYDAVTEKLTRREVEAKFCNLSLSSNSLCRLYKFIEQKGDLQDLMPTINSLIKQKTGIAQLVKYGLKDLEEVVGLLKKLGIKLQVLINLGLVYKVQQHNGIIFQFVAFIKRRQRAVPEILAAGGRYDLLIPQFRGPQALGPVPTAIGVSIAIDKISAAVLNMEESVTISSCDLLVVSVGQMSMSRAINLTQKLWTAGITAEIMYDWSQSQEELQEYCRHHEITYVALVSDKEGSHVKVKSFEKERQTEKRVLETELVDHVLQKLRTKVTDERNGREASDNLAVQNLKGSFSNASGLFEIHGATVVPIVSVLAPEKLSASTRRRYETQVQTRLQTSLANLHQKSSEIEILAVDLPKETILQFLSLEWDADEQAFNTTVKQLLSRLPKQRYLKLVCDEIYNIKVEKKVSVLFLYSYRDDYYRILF
Polycomb protein EED, sequence (O75530 whole entry): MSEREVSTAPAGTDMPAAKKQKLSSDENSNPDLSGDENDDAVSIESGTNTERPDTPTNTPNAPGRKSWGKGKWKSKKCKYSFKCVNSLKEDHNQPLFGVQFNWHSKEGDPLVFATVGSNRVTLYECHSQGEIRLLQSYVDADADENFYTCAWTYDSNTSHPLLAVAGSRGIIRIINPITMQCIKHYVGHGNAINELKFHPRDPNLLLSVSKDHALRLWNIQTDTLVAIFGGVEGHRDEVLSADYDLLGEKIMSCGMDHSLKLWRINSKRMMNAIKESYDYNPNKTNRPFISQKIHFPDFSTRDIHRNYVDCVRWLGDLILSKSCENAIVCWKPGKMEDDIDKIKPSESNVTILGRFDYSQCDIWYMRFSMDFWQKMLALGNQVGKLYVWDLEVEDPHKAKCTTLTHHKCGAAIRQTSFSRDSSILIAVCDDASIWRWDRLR
Ubiquitin carboxyl-terminal hydrolase 7, sequence (Q93009 whole entry): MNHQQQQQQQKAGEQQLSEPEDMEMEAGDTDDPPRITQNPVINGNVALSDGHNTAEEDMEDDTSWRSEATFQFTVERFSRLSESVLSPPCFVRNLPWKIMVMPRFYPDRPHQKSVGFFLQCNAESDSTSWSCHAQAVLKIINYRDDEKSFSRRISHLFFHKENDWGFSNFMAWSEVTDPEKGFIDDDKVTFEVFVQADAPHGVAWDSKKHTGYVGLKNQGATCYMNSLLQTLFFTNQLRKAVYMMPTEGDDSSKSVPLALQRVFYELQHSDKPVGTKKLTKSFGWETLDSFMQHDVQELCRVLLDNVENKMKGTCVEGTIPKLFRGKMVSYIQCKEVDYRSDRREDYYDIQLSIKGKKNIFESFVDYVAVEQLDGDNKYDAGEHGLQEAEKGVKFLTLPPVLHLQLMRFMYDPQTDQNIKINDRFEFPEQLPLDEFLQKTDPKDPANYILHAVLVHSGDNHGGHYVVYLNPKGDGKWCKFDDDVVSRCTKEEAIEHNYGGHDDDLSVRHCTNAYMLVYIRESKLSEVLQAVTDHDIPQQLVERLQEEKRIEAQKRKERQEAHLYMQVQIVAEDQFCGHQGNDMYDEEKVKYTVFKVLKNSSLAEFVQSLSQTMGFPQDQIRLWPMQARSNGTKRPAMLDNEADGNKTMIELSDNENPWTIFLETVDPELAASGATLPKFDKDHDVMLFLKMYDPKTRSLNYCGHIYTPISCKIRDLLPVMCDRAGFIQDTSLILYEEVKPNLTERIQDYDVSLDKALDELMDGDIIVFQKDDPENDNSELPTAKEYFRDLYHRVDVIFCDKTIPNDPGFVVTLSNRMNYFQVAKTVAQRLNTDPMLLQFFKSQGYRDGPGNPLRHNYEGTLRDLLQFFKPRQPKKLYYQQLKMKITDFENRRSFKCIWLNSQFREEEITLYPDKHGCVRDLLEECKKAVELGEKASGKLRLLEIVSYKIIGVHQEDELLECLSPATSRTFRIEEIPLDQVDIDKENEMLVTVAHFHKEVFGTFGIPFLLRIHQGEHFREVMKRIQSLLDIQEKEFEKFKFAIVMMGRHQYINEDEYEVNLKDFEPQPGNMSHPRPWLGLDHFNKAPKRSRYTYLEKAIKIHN

Structure (SMILES): CO[C@H]1C[C@H]2CC[C@@H](C1)N2c1c(-c2c(F)cc(F)cc2F)c(Cl)nc2ncnn12
- IC50 [1]: 0.081 µM
- IC50 (A2780): 0.051 µM

Structure (SMILES): CCCSc1nc(NCCN)c2nnn(Cc3ccc(Cl)cc3)c2n1
- IC50 [2]: 1.1 µM
- IC50 [3]: > 100 µM
- IC50 [4]: > 100 µM

Structure (SMILES): COc1cc(-c2cc(-c3ccc(Cl)cc3)nc3nc(N)nn23)cc(OC)c1OC
- IC50 (Tubulin [6]): 3.84 µM

Structure (SMILES): COc1ccc(-c2c(C(C)=O)c(C)nc3nc(-c4cc(OC)c(OC)c(OC)c4)nn23)cc1[N+](=O)[O-]
- IC50 (Tubulin [7]): 9.9 µM

Structure (SMILES): CS(=O)(=O)c1ccc(-c2cnc(NCc3ccco3)n3cnnc23)cc1
- IC50 (Polycomb protein EED): 0.03 µM
- IC50 (G-401): 85 µM

Structure (SMILES): Cc1cc(Nc2ccccc2)n2nc(SCc3nc4ccccc4[nH]3)nc2n1
- T/C (SW620/AD300): 29.7%

Structure (SMILES): COc1cc(-c2nc3nc(C)c(C(C)=O)c(-c4ccc([N+](=O)[O-])cc4)n3n2)cc(OC)c1OC
- inhibition (Tubulin (Homo sapiens)): 42%

Structure (SMILES): N#Cc1c2c(c3nncn3c1NCc1ccco1)CN(Cc1ccccc1)CC2
- IC50 (G-401): 3.28 µM

Continued, values first:

- IC50 (eIF-2-alpha kinase GCN2 [5]): < 0.3 µM
Structure (SMILES): c1nn(C2CCOCC2)cc1Nc1ncc2nnn(-c3ccc4cn[nH]c4c3)c2n1

- IC50 (Tubulin [6]): 0.39 µM
Structure (SMILES): Cc1cc(Nc2ccc(F)cc2)n2nc(NCCCc3ccccc3)nc2n1

- IC50 (Polycomb protein EED): 0.05 µM
Structure (SMILES): Cc1ncccc1-c1cnc(NCc2c(F)cc(N)c3c2CCO3)n2cnnc12

- IC50 (eIF-2-alpha kinase GCN2 [8]): 0.004 µM
Structure (SMILES): COc1ccc(-n2nnc3cnc(Nc4ccc(N)c(C)c4)nc32)cc1

- IC50 (eIF-2-alpha kinase GCN2 [5]): 0.016 µM
Structure (SMILES): CCOc1ccc(-n2nnc3cnc(Nc4cnn(C5CCOCC5)c4)nc32)cc1
